Earlier results in publication PMC11785708, “Design and synthesis of new quinazolinone derivatives: investigation of antimicrobial and biofilm inhibition effects” (Molecular Diversity, 2024).

Test system: Candida albicans
Parameters: method as in doi:10.1002/slct.201803795
Conditions: read-out: anti-biofilm activity IC50; cited from earlier work

Structure (SMILES): COc1cc(OC)c(-c2nc3ccccc3c(=O)[nH]2)c(OC)c1 [V]
- IC50: < 30 µM
